Test results as given in PMC5983644, “Expression and Interaction Analysis among Saffron ALDHs and Crocetin Dialdehyde” (International Journal of Molecular Sciences, 2018).

Target: T1, ALDH20158 (Crocus sativus, UniProt A0A3G1GZK3)
T1 sequence (A0A3G1GZK3 31-535): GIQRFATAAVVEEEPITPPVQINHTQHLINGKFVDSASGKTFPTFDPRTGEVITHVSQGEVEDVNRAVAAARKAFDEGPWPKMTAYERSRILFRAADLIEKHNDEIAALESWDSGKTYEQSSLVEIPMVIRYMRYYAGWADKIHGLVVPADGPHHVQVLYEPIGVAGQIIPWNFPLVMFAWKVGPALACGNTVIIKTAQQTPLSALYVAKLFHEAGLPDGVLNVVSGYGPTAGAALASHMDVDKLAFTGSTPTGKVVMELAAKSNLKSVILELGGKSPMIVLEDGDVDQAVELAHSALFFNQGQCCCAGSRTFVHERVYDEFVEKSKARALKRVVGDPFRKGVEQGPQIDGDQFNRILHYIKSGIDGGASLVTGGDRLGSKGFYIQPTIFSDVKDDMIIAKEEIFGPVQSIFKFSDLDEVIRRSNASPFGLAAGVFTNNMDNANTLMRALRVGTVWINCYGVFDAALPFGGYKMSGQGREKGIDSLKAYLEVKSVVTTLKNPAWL
Assay: LC-APCI(+)-MS of crocetin formed by crude extract of E. coli expressing the enzyme
Format: biochemical
Settings: NAD+, pyrophosphate buffer, NaCl, pH 7.5, 28 C, 30 min; empty-vector extract as control

SMILES: C\C(C=O)=C/C=C/C(C)=C/C=C/C=C(C)/C=C/C=C(\C)C=O [crocetin dialdehyde]
- LC-APCI(+)-MS of crocetin formed by crude extract of E. coli expressing the enzy: the same results were obtained using ALDH20158 and ALDH3898
